# Results reported in patent publication EP4813463A2, “TYK2 INHIBITORS AND COMPOSITIONS AND METHODS THEREOF” (Lynk Pharmaceuticals Co. Ltd., priority 2023, dated 2024).
# Where two headings read alike, the source gives them in different places.
# Experiments:
# [1] = tested on: Ba/F3-FL-TYK2-P760L cells; assay: Anti-proliferative assay in engineered Ba/F3 cells (Cell-Titer Glo, 72 h); type: cell-based; settings: 72 h compound treatment, concentration that causes 50% growth inhibition, read-out: Baf3-FL-T2P760L
# Procedure: Dimerization domain of Tel protein fused with JAK kinase domain was permanently transduced into Ba/F3 cells, whose proliferation is dependent on JAK activity in the absence of IL-3 induction. These engineered Ba/F3-FL-TYK2-P760L cells were used to monitor JAK inhibitory activities of the compounds in the cellular. Ba/F3 cells were cultured in RPMI-1640 (Corning) containing 10% fetal bovine serum. Cells were seeded at 2000/well of white flat bottom 96-well plates. The well containing medium only was used as background control. After 24h growth, cells were treated with compounds. The test compounds were dissolved in DMSO to a stock concentration of 20 mM. 3-fold serially diluted compounds for 9 concentrations with top concentration of 20 µM was added into the each well. The final DMSO concentration was 0.1%. The cells continued to grow at 37°C in 5% CO2 for 72 h after compound treatment. The viability was measured by cellular ATP determination using the Cell-Titer Glo luciferase reagent (Promega). The Luminescence value was recorded by a multi-label reader Envision (PerkinElmer). Inhibition Rate was calculated relative to vehicle (DMSO) treated control wells using following formula: % Inhibition = 100−(RLU_compound−RLU_blank)/(RLU_control−RLU_blank) × 100% [formula] wherein • RLU_compound = the relative light unit of cells treated with test compounds • RLU_blank = the relative light unit of medium with DMSO only • RLU_control = the relative light unit of cells treated with DMSO only
# Table 4. Ba/F3-FL-TYK2-P760L Cells IC50 Values of Exemplary Compounds
# TYK2-JH2 domain = target: T1, TYK2-JH2 domain (Homo sapiens, UniProt P29597); assay: Binding activity test for JH2 domain of TYK2 (Tb-antibody/tracer FRET); settings: JH2 domain enzyme; 60 min at 25°C, then 4°C overnight; read-out: TYK2 JH2 Binding IC50
# T1 construct: JAK1-JH2 domain or TYK2-JH2 domain enzyme in assay buffer
# Procedure: Binding Activity test for JH2 domain of JAK1 and TYK2 […] Add 8μL/well in echo source plate, echo will add 75nL/well with 3-fold serial dilution for 11 points in assay plate. 75nL DMSO for high control and low control. […] For low control, add 5μL/well assay buffer. And then spin down at 1000rpm and centrifuge for 30 seconds. After enzyme system prepared, add 5μL of Tb-antibody solution into each well of assay plate. Spin down at 1000 rpm and centrifuge for 30sec. After Tb-antibody added, also add 5μL of tracer into the assay plate. Spin down at 1000rpm and centrifuge for 30sec. Incubate for […] at 25°C firstly and then continue to incubate the plate at 4°C overnight. Read by envision in FRET mode. The Luminescence value was recorded by a multi-label reader Envision (PerkinElmer). […] Table 2. IC50 on JH2 domain activity (nM)
# T1 sequence (P29597 589-875 limits assumed): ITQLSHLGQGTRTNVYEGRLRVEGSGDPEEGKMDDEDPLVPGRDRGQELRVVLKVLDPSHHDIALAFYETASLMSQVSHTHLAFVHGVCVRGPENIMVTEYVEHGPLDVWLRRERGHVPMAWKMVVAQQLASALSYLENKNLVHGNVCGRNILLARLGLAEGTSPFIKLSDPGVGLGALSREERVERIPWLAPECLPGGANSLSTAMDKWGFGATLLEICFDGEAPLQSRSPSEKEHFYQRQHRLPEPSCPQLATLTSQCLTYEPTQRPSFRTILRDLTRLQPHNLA
IC50 [1],IC50 (TYK2-JH2 domain),"IC50 ([1]; Mus musculus, BaF3, 72 h)",SMILES
,0.119 nM,9.83 nM,"COC(=O)c1cnc(NC(=O)C2CC2)cc1Nc1nn(C)c2ccc(C(OC)C(C)(F)F)c(OC)c12 (single isomer, unassigned) [Example 115A, Methyl (S*)-6-(cyclopropanecarboxamido)-4-((5-(2,2-difluoro-1-methoxypropyl)-4-methoxy-1-methyl-1H-indazol-3-yl)amino)nicotinate]"
2.51 nM,0.095 nM,,"[2H]C([2H])([2H])OC(c1ccc2c(c(Nc3cc(NC(=O)C4CC4)ncc3C(=O)OC)nn2CCOC)c1OC)C(F)(F)F (single isomer, unassigned) [Example 157A, Methyl (S*)-6-(cyclopropanecarboxamido)-4-((4-methoxy-1-(2-methoxyethyl)-5-(2,2,2-trifluoro-1-methoxyethyl)-1H-indazol-3-yl)amino)nicotinate]"
45 nM,1.18 nM,,"CCC(F)(F)c1cnc(NC(=O)C2CC2)cc1Nc1nn(C)c2ccc(C(O)C(F)(F)F)c(OC)c12 (single isomer, unassigned) [Example 193B, (R*)-N-(5-(1,1-Difluoropropyl)-4-((4-methoxy-1-methyl-5-(2,2,2-trifluoro-1-hydroxyethyl)-1H-indazol-3-yl)amino)pyridin-2-yl)cyclopropanecarboxamide]"
,0.18 nM,11.2 nM,"[2H]C([2H])([2H])NC(=O)c1cnc(NC(=O)C2CC2)cc1Nc1nn(C)c2ccc([C@@H](OC)C(F)(F)F)c(OC)c12 [Example 46B, (R)-6-(cyclopropanecarboxamido)-4-((4-methoxy-1-methyl-5-(2,2,2-trifluoro-1-methoxyethyl)-1H-indazol-3-yl)amino)-N-(methyl-d3)nicotinamide]"
,0.285 nM,48.4 nM,"COC(=O)c1cnc(NC(=O)C2CC2)cc1Nc1cccc(-c2cnn(C)n2)c1OC [Example 63, Methyl 6-(cyclopropanecarboxamido)-4-((2-methoxy-3-(2-methyl-2H-1,2,3-triazol-4-yl)phenyl)amino)nicotinate]"
,0.14 nM,2.65 nM,"[2H]C([2H])([2H])NC(=O)c1cnc(NC(=O)C2CC2)cc1Nc1csc2ccc(C(OC)C(F)(F)F)c(OC)c12 (stereo not shown) [Example 72, 6-(Cyclopropanecarboxamido)-4-((4-methoxy-5-(2,2,2-trifluoro-1-methoxyethyl)benzo[b]thiophen-3-yl)amino)-N-(methyl-d3)nicotinamide]"
,0.14 nM,7.56 nM,"CONC(=O)c1cnc(NC(=O)C2CC2)cc1Nc1nn(C)c2ccc(C(OC)C(F)(F)F)c(OC)c12 (stereo not shown) [Example 73, 6-(Cyclopropanecarboxamido)-N-methoxy-4-((4-methoxy-1-methyl-5-(2,2,2-trifluoro-1-methoxyethyl)-1H-indazol-3-yl)amino)nicotinamide]"
,0.18 nM,30.7 nM,"COC(=O)c1cnc(NC(=O)C2CC2)cc1Nc1nn(C)c2ccc(C(OC)C3(F)CC3)c(OC)c12 (stereo not shown) [Example 74, Methyl 6-(cyclopropanecarboxamido)-4-((5-((1-fluorocyclopropyl) (methoxy)methyl)-4-methoxy-1-methyl-1H-indazol-3-yl)amino)nicotinate]"
,0.09 nM,3.49 nM,"COC(=O)c1cnc(NC(=O)[C@@H]2C[C@@H]2F)cc1Nc1nn(C)c2ccc([C@H](OC)C(F)(F)F)c(OC)c12 [Example 76, Methyl 6-((1S,2S)-2-fluorocyclopropane-1-carboxamido)-4-((4-methoxy-1-methyl-5-((S)-2,2,2-trifluoro-1-methoxyethyl)-1H-indazol-3-yl)amino)nicotinate]"
,0.17 nM,5.26 nM,"COCCn1nc(Nc2cc(NC(=O)C3CC3)ncc2C(=O)OC)c2c(OC)c(C(OC)C(F)(F)F)ccc21 (stereo not shown) [Example 78, Methyl 6-(cyclopropanecarboxamido)-4-((4-methoxy-1-(2-methoxyethyl)-5-(2,2,2-trifluoro-1-methoxyethyl)-1H-indazol-3-yl)amino)nicotinate]"
,0.364 nM,19 nM,"COC(=O)c1cnc(NC(=O)C2CC2)cc1Nc1csc2ccc(C(OC)C(F)(F)F)c(OC)c12 (stereo not shown) [Example 111, Methyl 6-(cyclopropanecarboxamido)-4-((4-methoxy-5-(2,2,2-trifluoro-1-methoxyethyl)benzo[b]thiophen-3-yl)amino)nicotinate]"
,0.162 nM,11.4 nM,"COC(=O)c1cnc(NC(=O)C2CC2)cc1Nc1nn(C)c2ccc(C(C)OC)c(OC)c12 (stereo not shown) [Example 112, Methyl 6-(cyclopropanecarboxamido)-4-((4-methoxy-5-(1-methoxyethyl)-1-methyl-1H-indazol-3-yl)amino)nicotinate]"
,0.209 nM,21.9 nM,"COC(=O)c1cnc(NC(=O)C2CC2)cc1Nc1nn(C)c2ccc(C(OC)C3CC3)c(OC)c12 (stereo not shown) [Example 114, Methyl 6-(cyclopropanecarboxamido)-4-((5-(cyclopropyl(methoxy)methyl)-4-methoxy-1-methyl-1H-indazol-3-yl)amino)nicotinate]"
,0.182 nM,5.58 nM,"COC(=O)c1cnc(NC(=O)C2CC2)cc1Nc1nn(C)c2ccc(C(OC)C(C)(F)F)c(OC)c12 (stereo not shown) [Example 115, Methyl 6-(cyclopropanecarboxamido)-4-((5-(2,2-difluoro-1-methoxypropyl)-4-methoxy-1-methyl-1H-indazol-3-yl)amino)nicotinate]"
,0.747 nM,,"COC(=O)c1cnc(NC(=O)C2CC2)cc1Nc1nn(C)c2ccc(C(OC)C(F)(F)F)c(O)c12 (stereo not shown) [Example 149, Methyl 6-(cyclopropanecarboxamido)-4-((4-hydroxy-1-methyl-5-(2,2,2-trifluoro-1-methoxyethyl)-1H-indazol-3-yl)amino)nicotinate]"
,0.891 nM,,"[2H]C([2H])([2H])CC(=O)c1cnc(NC(=O)C2CC2)cc1Nc1ncc2cnn(CC(C)(F)F)c2c1OC [Example 155, N-(4-((1-(2,2-difluoropropyl)-7-methoxy-1H-pyrazolo[4,3-c]pyridin-6-yl)amino)-5-(propanoyl-3,3,3-d3)pyridin-2-yl)cyclopropanecarboxamide]"
,0.074 nM,,"COC(=O)c1cnc(NC(=O)C2CC2)cc1Nc1nn(C)c2ccc([C@H](OCOP(=O)(O)O)C(F)(F)F)c(OC)c12 [Example 170, Sodium (S)-(1-(3-((2-(cyclopropanecarboxamido)-5-(methoxycarbonyl)pyridin-4-yl)amino)-4-methoxy-1-methyl-1H-indazol-5-yl)-2,2,2-trifluoroethoxy)methyl phosphate]"
,,14.5 nM,"CCC(F)(F)c1cnc(NC(=O)C2CC2)cc1Nc1nc2ccc(N3CC(OC)C3)cn2n1 [Example 183, N-(5-(1,1-Difluoropropyl)-4-((6-(3-methoxyazetidin-1-yl)-[1,2,4]triazolo[1,5-a]pyridin-2-yl)amino)pyridin-2-yl)cyclopropanecarboxamide]"

SMILES,IC50 [1],IC50 (TYK2-JH2 domain),"IC50 ([1]; Mus musculus, BaF3, 72 h)"
"[2H]C([2H])([2H])NC(=O)c1cnc(NC(=O)C2CC2)cc1Nc1nn(CC)c2ccc(C(O)C(F)(F)F)c(OC)c12 (single isomer, unassigned) [Example 71B, (R*)-6-(cyclopropanecarboxamido)-4-((1-ethyl-4-methoxy-5-(2,2,2-trifluoro-1-hydroxyethyl)-1H-indazol-3-yl)amino)-N-(methyl-d3)nicotinamide]",17.9 nM,0.25 nM,
